Assay results taken from ChEMBL document CHEMBL4765253, “Discovery, synthesis, and optimization of an N-alkoxy indolylacetamide against HIV-1 carrying NNRTI-resistant mutations from the Isatis indigotica root” (Eur J Med Chem, 2020).

Assays:
[1] = Inhibition of RNase H activity of HIV-1 reverse transcriptase using DNA/RNA hybrid as substrate incubated for 30 mins by fluorescence based analysis; design: species or system Human immunodeficiency virus 1
[2] = system: Human immunodeficiency virus 1; assay: Antiviral activity against VSVG/wild-type HIV-1 infected in human HEK 293T cells assessed as inhibition of virus replication preincubated with cells for 15 mins prior to viral infection and measured at 48 hrs post-infection by luciferase reporter gene assay; assay type: functional, organism-based, HEK293T; conditions: Human immunodeficiency virus 1, HEK-293T
HEK-293T [3] = assay: Cytotoxicity against human HEK 293T cells assessed as reduction in cell viability measured after 48 hrs by Celltiter-glo assay; assay type: cell-based
[4] = Inhibition of HIV-1 reverse transcriptase RNA-dependent DNA polymerase activity assessed as reduction in dTTP incorporation using poly(rA)/oligo(dT) as template/primer incubated for 1 hr followed by transferring into streptavidin plate for 1 hr by absorbance based analysis; design: species or system Human immunodeficiency virus 1
[5] = system: Human immunodeficiency virus 1; assay: (§1) Antiviral activity against VSVG/HIV-1 harboring reverse transcriptase K103N mutant infected in human HEK 293T cells assessed as inhibition of virus replication preincubated with cells for 15 mins prior to viral infection and measured at 48 hrs post-infection by luciferase reporter gene assay; assay type: functional, organism-based, HEK293T
[6] = system: Human immunodeficiency virus 1; assay type: functional, organism-based, HEK293T
[7] = system: Human immunodeficiency virus 1; assay type: functional, organism-based, HEK293T; remark: listed apart in the source
[8] = system: Human immunodeficiency virus 1; assay: as §1, with “L100I/K103N double” for “K103N”; assay type: functional, organism-based; conditions: hek293t
[9] = system: Human immunodeficiency virus 1; assay type: functional, organism-based, HEK293T; remark: listed apart in the source
[10] = system: Human immunodeficiency virus 1; assay: as §1, with “G190A/K103N double” for “K103N”; assay type: functional, organism-based, HEK293T
[11] = system: Human immunodeficiency virus 1; assay: as §1, with “V108I/K103N double” for “K103N”; assay type: functional, organism-based, HEK293T
[12] = system: Human immunodeficiency virus 1; assay: Antiviral activity against VSVG/wild-type HIV-1 infected in human HEK 293T cells assessed as time during which compound exhibits 50% virologic failure at 1 uM treated at post-viral infection and measured at 48 hrs post-infection by luciferase reporter gene assay; assay type: functional, HEK293T
[13] = Selectivity index, ratio of CC50 for human HEK 293T cells to EC50 for VSVG/wild type HIV1 infected in human HEK 293T cells; assay type: toxicity, cell-based; conditions: read-out: Ratio CC50/EC50
HEK-293T [14] = assay: Cytotoxicity against human HEK 293T cells assessed as cell viability at 30 uM measured after 48 hrs by Celltiter-glo assay; assay type: cell-based
[15] = Human immunodeficiency virus 1, HEK-293T

COC(=O)c1ccccc1NC(=O)Cc1cn(OC)c2ccccc12
IC50 [1]: > 30000 nM

CCCOn1cc(CC(=O)Nc2ccccc2Cl)c2ccccc21
EC50 [2]: 290 nM | CC50 (HEK-293T [3]): 29500 nM | IC50 [4]: 270 nM | EC50 [5, 15]: > 10000 nM | IC50 [1]: > 100000 nM | EC50 ([6]; hek293t): 2130 nM | EC50 [7, 15]: > 10000 nM | EC50 [8]: 8950 nM | EC50 [9, 15]: > 10000 nM | EC50 [10, 15]: > 10000 nM | EC50 [11, 15]: > 10000 nM

Cc1cn([C@H]2C[C@H](N=[N+]=[N-])[C@@H](CO)O2)c(=O)[nH]c1=O [ZIDOVUDINE]
FT50 [12]: 8.5 h

CCCOn1cc(CC(=O)Nc2ccccc2C(=O)OC)c2ccccc21
EC50 [2]: 6700 nM | CC50 (HEK-293T [3]): > 30000 nM | selectivity ratio [13]: > 4.48 | Activity (HEK-293T [14]): 55.39%

CCCCCCOn1cc(CC(=O)Nc2ccccc2Cl)c2ccccc21
EC50 [2]: 1020 nM | CC50 (HEK-293T [3]): > 30000 nM | selectivity ratio [13]: > 29.4 | Activity (HEK-293T [14]): 56.95%

CCCCOn1cc(CC(=O)Nc2ccncc2Cl)c2ccccc21
EC50 [2]: 40 nM | CC50 (HEK-293T [3]): 22100 nM | IC50 [4]: 80 nM | IC50 [1]: > 100000 nM | EC50 [6, 15]: 40 nM | EC50 [8]: 430 nM | EC50 ([9]; hek293t): 1420 nM | EC50 [10, 15]: 700 nM | EC50 ([11]; hek293t): 560 nM

Cc1ccnc2c1NC(=O)c1cccnc1N2C1CC1 [NEVIRAPINE]
CC50 (HEK-293T [3]): > 30000 nM | EC50 ([5]; hek293t): 1400 nM | Activity (HEK-293T [14]): 93.26% | EC50 [7, 15]: 80000 nM | EC50 [8]: 760 nM | EC50 [9, 15]: > 100000 nM | EC50 ([10]; hek293t): 14600 nM | EC50 ([11]; hek293t): 2870 nM

Cc1nnc(C(=O)NC(C)(C)c2nc(C(=O)NCc3ccc(F)cc3)c(O)c(=O)n2C)o1
FT50 [12]: 12.2 h

CCOn1cc(CC(=O)Nc2ccccc2C(=O)OC)c2ccccc21
EC50 [2]: 5700 nM | CC50 (HEK-293T [3]): > 30000 nM | selectivity ratio [13]: > 5.26 | Activity (HEK-293T [14]): 52.76%

O=C1Nc2ccc(Cl)cc2[C@@](C#CC2CC2)(C(F)(F)F)O1 [EFAVIRENZ]
CC50 (HEK-293T [3]): 23700 nM | EC50 [5, 15]: 30 nM | FT50 [12]: 9.4 h | EC50 [6, 15]: 2 nM | EC50 [7, 15]: 50 nM | EC50 [8]: 1080 nM | EC50 ([9]; hek293t): 120 nM | EC50 ([10]; hek293t): 180 nM | EC50 [11, 15]: 60 nM

O=C(Cc1cn(OCCc2ccccc2)c2ccccc12)Nc1ccccc1Cl
EC50 [2]: 5500 nM | CC50 (HEK-293T [3]): > 30000 nM | selectivity ratio [13]: > 5.45 | Activity (HEK-293T [14]): 49.31%

CCCOn1cc(CC(=O)Nc2ccncc2Cl)c2ccccc21
EC50 [2]: 60 nM | CC50 (HEK-293T [3]): 16400 nM | IC50 [4]: 110 nM | EC50 [5, 15]: 700 nM | IC50 [1]: > 100000 nM | EC50 ([6]; hek293t): 180 nM | EC50 ([7]; hek293t): 1850 nM | EC50 [8]: 1180 nM | EC50 ([10]; hek293t): 1380 nM | EC50 ([11]; hek293t): 1270 nM
